Results published in patent US20250057793A1, “BENZOIC ACID SALTS FOR TREATMENT OF NERVOUS SYSTEM INJURIES AND DISORDERS” (The United States Government as represented by the …, priority 2021, published 2025).
Entries after “also recorded” stand apart in the source; their conditions may differ.

Columns and labels:
TBI mice [1] = assay: T-maze in TBI mice; assay type: in vivo, mouse; details: 21 days post-injury, 50 mg/kg/day oral
Protocol: Mice were initially habituated in the T-maze for 2 days under food-deprived conditions. Food reward was provided for at least 5 times over a 10 mins period of training. T-maze was cleaned with mild detergent solution between each testing session, so as to minimize the animal's ability to use any olfactory clues. The food-reward side was always associated with a visual cue. Each time the animal consumed food-reward and it was considered as a positive turn.

CCI-injured mice [2] = assay: Grid runway in CCI-injured mice; assay type: in vivo, mouse; details: for gait movement on grid runway (steps, time taken, foot misplacement): 7 day post-injury
Description: The grid runway (65 cm length×8 cm breadth×1 cm intervals) made of parallel grid bars with interbar intervals of 1 cm apart and grid were kept above the surface on a table during the testing session. The soft padding was positioned under the grid run-way in the event for protection to avoid serious injury, if the animal falls from the grid. Each mouse was allowed to walk freely on grid and the time taken and number of steps to cross the runway was noted. Each successful foot placement on grid was recorded as a step. However, an error was considered whenever the paw slips through the grid or the paw misses a bar and extends downwards through the plane of bars. The locomotor behavior of animal on grid was evaluated by an observer blinded to the treatment on 7th and 21st day after CCI injury.

CCI-injured mice [3] = assay: Rotarod test in CCI-injured mice; assay type: in vivo, mouse; details: 50 mg/kg/day oral
Protocol: The forehindlimb motor coordination and balance in animals was observed using the rotarod test as described in earlier studies. Briefly, each mouse was placed on the confined section of the rod and trial was initiated with a smooth increase in speed from 4 rpm to 40 rpm for 5 mins. […] The latency to fall was measured in seconds and used for the analysis. Following the CCI injury, each mouse performed the task three trials during the testing sessions and the average score on these three trials was used as the individual rotarod score. Each trial on the rod was terminated when the mice fell off the rod or held on to the rod by hanging and completed improper revolutions.

TBI mice [4] = assay: Barnes maze test in TBI mice; assay type: in vivo, mouse; details: 50 mg/kg/day oral; for Barnes maze latency (time taken to find the target hole) / Barnes maze number of errors: 21 days post-injury
Protocol: The Barnes maze test was performed as described in our earlier studies. Briefly, the mice were initially trained for 2 consecutive days followed by examination on day 3. After each training session, maze and escape tunnel were thoroughly cleaned with a mild detergent to avoid instinctive odor avoidance due to mouse's odor from the familiar object. On day 3, a video camera (Basler Gen I Cam—Basler acA 1300-60) connected to a Noldus computer system was placed above the maze and was illuminated with high voltage light that generated enough light and heat to motivate animals to enter into the escape tunnel. The performance was monitored by the video tracking system (Noldus System). Cognitive behavior parameters were examined by measuring latency (duration before all four paws were on the floor of the escape box) and errors (incorrect response before all four paws were on the floor of the escape box).

CCI-injured mice [5] = assay: Beam runway / beam walking in CCI-injured mice; assay type: in vivo, mouse; details: for gait movement on beam runway (steps, time taken, foot slips): 7 day post-injury
Description: The beam runway was made of smooth wooden material and measured 65 cm length×0.7 cm breadth×4 cm height. A black box with an opening was fixed at one end and an aversive stimulus (bright lamp) at the other end of beam. This test was used to evaluate the complex coordination and balance of mice while traversing the beam and we performed the procedure as described in earlier studies. The mouse was placed on the beam near the light source and the light was turned ‘on’. This makes the animal move into the box to avoid the aversive stimulus, which was then turned off. Six repetitions were performed with a 2 mins resting period inside the box. The parameters measured were the time taken (sec) to reach the box and the number of steps with contralateral limb drag/slips. An error was considered whenever the paw slipping on the beam and the number of slips were counted. The beam walk analysis was performed by an observer blinded to the treatment at 7th and 21st postoperative day.

CCI-injured mice [6] = assay: Tail suspension test (depression-like behavior) in CCI-injured mice; assay type: in vivo, mouse; details: 50 mg/kg/day oral
Protocol: Mice were subjected to the tail suspension test using a methodology as described in earlier studies. The mice were gently hung upside down by the tail using the non-toxic adhesive tape 50 cm above the floor for 6 mins. Immobility time was defined as the period of time during which the mice only hung passively, without any active movements. An increased immobility time is defined as a depression-like behavior.

CCI-induced TBI mice [7] = assay: Lesion volume in CCI-induced mice (Cavalieri stereology); assay type: in vivo, mouse; details: for total lesion volume / size of lesion cavity: 21 days post-injury
Protocol: FIG. 5C is a plot showing lesion size in the experimental conditions. Lesion size was quantitatively measured in control mice, untreated CCI injured mice, NaB treated CCI-mice and NaFO-treated CCI-mice at 21 days post-injury. Statistical analyses were performed with Student's t-test in the injured side of the brain [^ap<0.001 (5.623×10^−7) vs control; ^bp<0.001 (=0.001) vs CCI injury].
FIGS. 10A-10C. Decrease in lesion volume in TBI mice by GTB treatment. […] FIG. 10A. […] FIG. 10C. Lesion volume was quantified in all groups of mice. Statistical analyses were performed with two way ANOVA and expressed as mean±SD to compare the lesion volume between unlesioned and lesioned side of the brain.
The estimation of lesion volume was performed based on the Cavalieri method of unbiased stereology using the StereoInvestigator software (MicroBright Biosciences, USA). Both the ipsilateral and contralateral hemisphere of brain volumes were determined using the Cavalieri estimator with a 1 mm grid spacing 1 mm. Every fourth section was analyzed beginning from a random start point. Lesion volume was estimated by subtracting the volume of the ipsilateral hemisphere from that of the contralateral hemi-sphere. Then the volume of lesion cavity estimated in brain section of untreated mice was compared with lesion volume of brain sections of drug treated mice.

[8] = test system: mice with TBI induced by CCI; assay: Open field behavior in TBI mice; assay type: in vivo, mouse; details: 50 mg/kg/day oral; for overall movements / all open-field parameters (heat map, distance, velocity, center frequency, rearing): 21 day post-injury
Protocol: The performance of animals in open field test was analyzed as described in earlier studies. Briefly, each animal was allowed to move freely to explore an open field arena designed with a square shaped wooden floor measuring 40×40 cm, with walls 30 cm high for 5 min. A […] (Basler Gen I Cam—Basler acA 1300-60) connected to a Noldus computer system was fixed in top facing-down on the open field arena. Each mouse was placed individually on center of the arena and the performance was monitored by the live video tracking system. The central area was arbitrarily defined as a square of 20×20 cm ([…]).

CCI-induced TBI mice [9] = assay: Glial activation and iNOS in brain of CCI-induced TBI mice (immunofluorescence, Western blot); details: for activation of astrocytes / astroglial inflammation in vivo / microglial activation in vivo / iNOS / iNOS-positive cells / GFAP-positive astrocytes / Iba1-positive microglia: cortex and hippocampus; for activation of astrocytes / astroglial inflammation in vivo / microglial activation in vivo: 7 days of treatment, 50 mg/kg/day oral; for iNOS / iNOS-positive cells / level of iNOS protein / expression of iNOS (Western blot) / protein level of GFAP (Western blot) / protein level of Iba1 (Western blot): day 7, 50 mg/kg/day oral; for GFAP-positive astrocytes / Iba1-positive microglia: day 7 post-injury, 50 mg/kg/day oral from 24 h after CCI; for level of iNOS protein / expression of iNOS (Western blot) / protein level of GFAP (Western blot) / protein level of Iba1 (Western blot): hippocampus
[10] = 21st day of CCI injury, 50 mg/kg/day oral gavage
[11] = 50 mg/kg/day oral, 50 mg/kg/day
[12] = 21 days post-injury, 50 mg/kg/day oral
[13] = 7 day post-injury, 50 mg/kg/day

Compound | T-maze number of negative turns (TBI mice [1]) | T-maze number of positive turns (TBI mice [1]) | Barnes maze latency (time taken to find the target hole) (TBI mice [4]) | Barnes maze number of errors (TBI mice [4]) | immobility time in tail suspension test (CCI-injured mice [6]; 21 days post-injury) | overall movements / all open-field parameters (heat map, distance, velocity, center frequency, rearing) [8] | activation of astrocytes / astroglial inflammation in vivo (CCI-induced TBI mice [9]) | microglial activation in vivo (CCI-induced TBI mice [9]) | iNOS / iNOS-positive cells (CCI-induced TBI mice [9]) | GFAP-positive astrocytes (CCI-induced TBI mice [9]) | Iba1-positive microglia (CCI-induced TBI mice [9]) | level of iNOS protein / expression of iNOS (Western blot) (CCI-induced TBI mice [9]) | protein level of GFAP (Western blot) (CCI-induced TBI mice [9]) | protein level of Iba1 (Western blot) (CCI-induced TBI mice [9]) | further results
O=C(OCC(COC(=O)c1ccccc1)OC(=O)c1ccccc1)c1ccccc1 [GTB, Glyceryl Tribenzoate] | lower number of negative turns | higher number of positive turns | less time | less errors | significantly less immobility time | no significant change | inhibits | decreases | decreased | decrease | reduced | decreased | decrease | reduced | grid runway, number of steps (CCI-injured mice [2]; [10]): no significant change; gait movement on grid runway (steps, time taken, foot misplacement) (CCI-injured mice [2]; 50 mg/kg/day oral): improved; latency to fall on rotarod (CCI-injured mice [3]; 7 day post-injury): increase in latency; beam walking, number of steps (CCI-injured mice [5]; [10]): no significant change; beam walking, time taken (CCI-injured mice [5]; [10]): no significant change; gait movement on beam runway (steps, time taken, foot slips) (CCI-injured mice [5]; 50 mg/kg/day oral): improved; immobility time in tail suspension test (CCI-injured mice [6]; 7 days post-injury): significantly less immobility time; total lesion volume / size of lesion cavity (CCI-induced TBI mice [7]; H&E-stained sections, 50 mg/kg/day oral gavage): decrease; general locomotor activity / open-field behavior ([8]; 7 day post-injury): significant increase
O=C([O-])c1ccccc1.[Na+] [NaB, Sodium benzoate] | lower number of negative turns | higher number of positive turns | less latency | fewer errors | significant improvement | significant differences in overall movements were not observed | attenuates | inhibits | inhibition of iNOS | decrease | decrease | decreases | Decrease and/or normalization | Decrease and/or normalization | gait movement on grid runway (steps, time taken, foot misplacement) (CCI-injured mice [2]; [11]): significant improvement; also recorded: significant upgrade; also recorded: improvements; grid runway performance (CCI-injured mice [2]; [12]): did not display significant protection; latency to fall on rotarod (CCI-injured mice [3]; [13]): prolonged latencies; also recorded: significantly improved; latency to fall on rotarod (CCI-injured mice [3]; 21 day post-injury, 50 mg/kg/day): prolonged latencies; also recorded: significantly improved; hippocampus-dependent behaviors / cognitive performance (TBI mice [4]; NOR, Barnes maze and T maze, 21 days): enhanced cognitive performance; gait movement on beam runway (steps, time taken, foot slips) (CCI-injured mice [5]; [11]): significant improvement; also recorded: significant upgrade; also recorded: improved; beam walking performance (CCI-injured mice [5]; [12]): did not display significant protection; immobility time in tail suspension test (CCI-injured mice [6]; 7 days post-injury, 50 mg/kg/day): significantly less immobility time; also recorded: significant improvement; total lesion volume / size of lesion cavity (CCI-induced TBI mice [7]; cresyl violet sections, 50 mg/kg/day oral): significantly reduced; structural-tissue integrity of damaged hippocampus (CCI-induced TBI mice [7]; oral treatment started 24 h after CCI): restored; general locomotor activity / open-field behavior [8, 13]: significant improvement; also recorded: improves; center frequency ([8]; open field, 7 day post-injury): Functional upgrading was clearly visible; distance traveled ([8]; open field, 7 day post-injury): Functional upgrading was clearly visible; rearing behavior ([8]; open field, 7 day post-injury): Functional upgrading was clearly visible; velocity ([8]; open field, 7 day post-injury): Functional upgrading was clearly visible
